Results: PubChem BioAssay (NCI)
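In this assay, cells in 96-well plates receive the compound at five concentrations for 48 hours. Endpoints are linearly interpolated between the surrounding concentrations. Definition used: TGI = concentration required for complete inhibition of growth.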

Key:
Test in all cases: NCI tumour cell line growth inhibition, 48 h
NCI-H226 lung = system: NCI-H226 lung
UACC-62 melanoma = system: UACC-62 melanoma
SNB-19 CNS = system: SNB-19 CNS
PC-3 prostate = system: PC-3 prostate
SK-MEL-2 melanoma = system: SK-MEL-2 melanoma
NCI-H460 lung = system: NCI-H460 lung
M14 melanoma = system: M14 melanoma
OVCAR-4 ovarian = system: OVCAR-4 ovarian
MDA-N = system: MDA-N
MDA-MB-435 = system: MDA-MB-435
SF-268 CNS = system: SF-268 CNS
K-562 leukemia = system: K-562 leukemia
KM12 colon = system: KM12 colon
HCT-116 colon = system: HCT-116 colon
MDA-MB-231 breast = system: MDA-MB-231 breast
SK-MEL-5 melanoma = system: SK-MEL-5 melanoma
NCI-H522 lung = system: NCI-H522 lung
U251 CNS = system: U251 CNS
LOX IMVI melanoma = system: LOX IMVI melanoma
786-0 renal = system: 786-0 renal
UO-31 renal = system: UO-31 renal
NCI/ADR-RES ovarian = system: NCI/ADR-RES ovarian
DU-145 prostate = system: DU-145 prostate
OVCAR-8 ovarian = system: OVCAR-8 ovarian
COLO 205 colon = system: COLO 205 colon
SW-620 colon = system: SW-620 colon
MCF7 breast = system: MCF7 breast
SF-539 CNS = system: SF-539 CNS
NCI-H23 lung = system: NCI-H23 lung
SNB-75 CNS = system: SNB-75 CNS
HCC-2998 colon = system: HCC-2998 colon
OVCAR-3 ovarian = system: OVCAR-3 ovarian
MOLT-4 leukemia = system: MOLT-4 leukemia
SK-MEL-28 melanoma = system: SK-MEL-28 melanoma
RXF 393 renal = system: RXF 393 renal
SN12C renal = system: SN12C renal
T-47D breast = system: T-47D breast
HOP-92 NSCLC = system: HOP-92 NSCLC
HL-60(TB) leukemia = system: HL-60(TB) leukemia
HCT-15 colon = system: HCT-15 colon
HOP-62 NSCLC = system: HOP-62 NSCLC
TK-10 renal = system: TK-10 renal
OVCAR-5 ovarian = system: OVCAR-5 ovarian
A498 renal = system: A498 renal
CCRF-CEM leukemia = system: CCRF-CEM leukemia
SF-295 CNS = system: SF-295 CNS
HS 578T breast = system: HS 578T breast
SR leukemia = system: SR leukemia
RPMI-8226 leukemia = system: RPMI-8226 leukemia
A549 NSCLC = system: A549 NSCLC
UACC-257 melanoma = system: UACC-257 melanoma
BT-549 breast = system: BT-549 breast
IGROV1 ovarian = system: IGROV1 ovarian
EKVX NSCLC = system: EKVX NSCLC
CAKI-1 renal = system: CAKI-1 renal
ACHN renal = system: ACHN renal
HT29 colon = system: HT29 colon
MALME-3M melanoma = system: MALME-3M melanoma
SK-OV-3 ovarian = system: SK-OV-3 ovarian

## CCOC(=O)C(NC(=O)OCc1ccccc1)C(=O)O (configuration not stated)
NCI-H226 lung
  TGI: > 100 µM
UACC-62 melanoma
  TGI: > 100 µM
SNB-19 CNS
  TGI: > 100 µM
PC-3 prostate
  TGI: > 100 µM
SK-MEL-2 melanoma
  TGI: > 100 µM
NCI-H460 lung
  TGI: > 100 µM
M14 melanoma
  TGI: > 100 µM
OVCAR-4 ovarian
  TGI: > 100 µM
MDA-N
  TGI: > 100 µM
MDA-MB-435
  TGI: > 100 µM
SF-268 CNS
  TGI: > 100 µM
K-562 leukemia
  TGI: > 100 µM
KM12 colon
  TGI: > 100 µM
HCT-116 colon
  TGI: > 100 µM
MDA-MB-231 breast
  TGI: > 100 µM
SK-MEL-5 melanoma
  TGI: > 100 µM
NCI-H522 lung
  TGI: > 100 µM
U251 CNS
  TGI: > 100 µM
LOX IMVI melanoma
  TGI: > 100 µM
786-0 renal
  TGI: > 100 µM
UO-31 renal
  TGI: > 100 µM
NCI/ADR-RES ovarian
  TGI: > 100 µM
DU-145 prostate
  TGI: > 100 µM
OVCAR-8 ovarian
  TGI: > 100 µM
COLO 205 colon
  TGI: > 100 µM
SW-620 colon
  TGI: > 100 µM
MCF7 breast
  TGI: > 100 µM
SF-539 CNS
  TGI: > 100 µM
NCI-H23 lung
  TGI: > 100 µM
SNB-75 CNS
  TGI: > 100 µM
HCC-2998 colon
  TGI: > 100 µM
OVCAR-3 ovarian
  TGI: > 100 µM
MOLT-4 leukemia
  TGI: > 100 µM
SK-MEL-28 melanoma
  TGI: > 100 µM
RXF 393 renal
  TGI: > 100 µM
SN12C renal
  TGI: > 100 µM
T-47D breast
  TGI: > 100 µM
HOP-92 NSCLC
  TGI: > 100 µM
HL-60(TB) leukemia
  TGI: > 100 µM
HCT-15 colon
  TGI: > 100 µM
HOP-62 NSCLC
  TGI: > 100 µM
TK-10 renal
  TGI: > 100 µM
OVCAR-5 ovarian
  TGI: > 100 µM
A498 renal
  TGI: > 100 µM
CCRF-CEM leukemia
  TGI: > 100 µM
SF-295 CNS
  TGI: > 100 µM
HS 578T breast
  TGI: > 100 µM
SR leukemia
  TGI: > 100 µM
RPMI-8226 leukemia
  TGI: > 100 µM
A549 NSCLC
  TGI: > 100 µM
UACC-257 melanoma
  TGI: > 100 µM
BT-549 breast
  TGI: > 100 µM
IGROV1 ovarian
  TGI: > 100 µM
EKVX NSCLC
  TGI: > 100 µM
CAKI-1 renal
  TGI: > 100 µM
ACHN renal
  TGI: > 100 µM
HT29 colon
  TGI: > 100 µM
MALME-3M melanoma
  TGI: > 100 µM

## CC(C)(O)/C1=C/C=C/CCCCCCCCCC1
NCI-H226 lung
  TGI: > 100 µM
UACC-62 melanoma
  TGI: > 100 µM
SNB-19 CNS
  TGI: > 100 µM
PC-3 prostate
  TGI: > 100 µM
SK-MEL-2 melanoma
  TGI: > 100 µM
NCI-H460 lung
  TGI: > 100 µM
M14 melanoma
  TGI: > 100 µM
MDA-N
  TGI: > 100 µM
MDA-MB-435
  TGI: > 100 µM
SF-268 CNS
  TGI: > 100 µM
K-562 leukemia
  TGI: > 100 µM
KM12 colon
  TGI: > 100 µM
HCT-116 colon
  TGI: > 100 µM
MDA-MB-231 breast
  TGI: > 100 µM
SK-MEL-5 melanoma
  TGI: 1.73 µM
NCI-H522 lung
  TGI: > 100 µM
U251 CNS
  TGI: > 100 µM
LOX IMVI melanoma
  TGI: > 100 µM
UO-31 renal
  TGI: > 100 µM
SK-OV-3 ovarian
  TGI: > 100 µM
NCI/ADR-RES ovarian
  TGI: > 100 µM
DU-145 prostate
  TGI: > 100 µM
OVCAR-8 ovarian
  TGI: > 100 µM
COLO 205 colon
  TGI: > 100 µM
SW-620 colon
  TGI: > 100 µM
MCF7 breast
  TGI: > 100 µM
NCI-H23 lung
  TGI: > 100 µM
SNB-75 CNS
  TGI: 2.85 µM
HCC-2998 colon
  TGI: > 100 µM
OVCAR-3 ovarian
  TGI: > 100 µM
MOLT-4 leukemia
  TGI: > 100 µM
SK-MEL-28 melanoma
  TGI: > 100 µM
SN12C renal
  TGI: > 100 µM
T-47D breast
  TGI: > 100 µM
HOP-92 NSCLC
  TGI: > 100 µM
HL-60(TB) leukemia
  TGI: 98.6 µM
HCT-15 colon
  TGI: > 100 µM
HOP-62 NSCLC
  TGI: > 100 µM
TK-10 renal
  TGI: > 100 µM
OVCAR-5 ovarian
  TGI: > 100 µM
A498 renal
  TGI: > 100 µM
CCRF-CEM leukemia
  TGI: > 100 µM
SF-295 CNS
  TGI: > 100 µM
HS 578T breast
  TGI: 7.78 µM
SR leukemia
  TGI: > 100 µM
RPMI-8226 leukemia
  TGI: > 100 µM
UACC-257 melanoma
  TGI: > 100 µM
BT-549 breast
  TGI: > 100 µM
IGROV1 ovarian
  TGI: > 100 µM
EKVX NSCLC
  TGI: > 100 µM
CAKI-1 renal
  TGI: > 100 µM
ACHN renal
  TGI: > 100 µM
HT29 colon
  TGI: > 100 µM
MALME-3M melanoma
  TGI: > 100 µM
